# Patent publication US4950686A, “Anti-mycoplasma agent” (Shionogi & Co., Ltd., priority 1986, dated 1990)
# Columns and labels:
# [1] = system: Mycoplasma gallisepticum T-7-T (wild strain, tylosin-resistant); test: Mycoplasma gallisepticum air-sac infection method in chicken, strain T-7-T; format: in vivo, Mycoplasma gallisepticum; SPF chicken (white leghorn);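 for Index of Isolation: index = (P×1 + Q×2 + R×3)/S with range 0 to 6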
# How it was run: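 9-day-old SPF white leghorn chickens, fasted one day, received tylosin-resistant M. gallisepticum T-7-T culture (usually diluted 100×) into the right air sac. Compound was given as a single forced oral dose by cannula immediately after infection, in mg/ml. At day 5, air-sac lesions (0–3) were scored as a weighted index and organisms were re-isolated from the air sacs and trachea.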
# [2] = system: Mycoplasma gallisepticum T-7-T (wild strain, tylosin-resistant); test: Anti-mycoplasma activity in vitro (MIC, broth dilution), strain T-7-T; format: cell-based; conditions: Mg T-7-T, 37° C., 7 days
# How it was run: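 Broth dilution MIC in chick PPLO broth with 20% equine serum, using 2-fold agent dilutions. Inoculum of 24-48 h culture diluted to 10^6 CCU/ml before use. Incubated 7 days at 37° C.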
# [3] = system: Mycoplasma gallisepticum S6 (standard strain); test: Anti-mycoplasma activity in vitro (MIC, broth dilution), strain S6; format: cell-based; conditions: Mg S6, 37° C., 7 days
# How it was run: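 Chick PPLO broth with 20% equine serum; 2-fold serial agent dilutions inoculated with culture diluted to 10^6 CCU/ml (inoculum concentration before addition). Incubated 7 days at 37 °C; MIC by broth dilution.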
# [4] = system: Mycoplasma gallisepticum MR-1 (wild strain, tylosin-resistant); test: Mycoplasma gallisepticum air-sac infection method in chicken, strain MR-1;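 for Index of Isolation: index = (P×1 + Q×2 + R×3)/S with range 0 to 6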; format: in vivo, Mycoplasma gallisepticum; SPF chicken (white leghorn); conditions: 100 mg/kg × once oral, 10 mg/ml sol. b
# Experimental: (2) Test of Effectiveness Mycoplasma gallisepticum air-sac infection method
# MR-1 (wild strain, tylosin-resistant)
# Inoculation: To the right air-sac of 9 days old SPF chicken (a white leghorn) which has abstained from water and feed one day before is inoculated 0.20-0.25 ml/chicken of fresh mycoplasma culture incubated for 24-48 hr and diluted with broth (usually 100 times). The concentration in Table 2 is shown in a unit of mg/ml.
# Medium: Chick PPLO broth supplemented with 15% equine serum (Eiken Kagaku Co., Ltd.)
# Administration: A compound of this invention dissolved or suspended in the following solution is orally and forcibly administered once by a cannula immediately after the infection.
# Anatomization and Isolation of Microorganism: The chickens are anatomized 5 days after the infection, and the right and left air sacs are investigated whether they are attacked with a disease or not. The change caused by the disease is represented in four degrees; -: no change, +: slight, ++: medium and +++: serious. Microorganism is isolated from the right and left air-sacs and the trachea by using a sterilized applicator.
# Judgement: Judgement is done through an index of an air-sac disease and an index of a microorganism-isolation.
# Index of an air-sac-disease: First, indexes in the right and left air-sacs are separately calculated according to the following formula;
# {degree of disease (0-3)×chickens}/anatomized chickens
# and the index is calculated by the following formula;
# (index of right air-sac)×1+(index of left air-sac)×2
# Index of a microorganism isolation:
# P: chickens from the right air-sac of which microorganism is isolated,
# Q: chickens from the trachea of which microorganism is isolated,
# R: chickens from the left air-sac of which microorganism is isolated, and
# S: chickens investigated.
# [5] = system: Mycoplasma hyopneumoniae ST-11 (standard strain); test: Anti-mycoplasma activity in vitro (MIC, broth dilution), strain ST-11; format: cell-based; conditions: Mesomycoplasma hyopneumoniae, Mh ST-11; read-out: MIC
# How it was run: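 MIC by broth dilution in Hanks' solution with 0.5% lactoalbumin, yeast, equine serum and phenol red, pH 7.4-7.6. Inoculum: 3-4-day culture, turned yellow, diluted 10-fold in broth (subcultured first if yellowing took over 4 days).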
# [6] = system: Mycoplasma gallisepticum MR-1 (wild strain, tylosin-resistant); test: Anti-mycoplasma activity in vitro (MIC, broth dilution), strain MR-1; format: cell-based; conditions: Mg MR-1, 37° C., 7 days
# How it was run: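 Broth dilution in chick PPLO broth with 20% equine serum; 2-fold compound dilutions, inoculum diluted to 10^6 CCU/ml. Incubated 7 days at 37 °C; MIC recorded.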
# [7] = 100 mg/kg × once oral, 10 mg/ml sol. b, inoculum 10^2
# [8] = 200 mg/kg × once oral, 20 mg/ml sol. a, inoculum 1.9 × 10^5
# [9] = 200 mg/kg × once oral, 20 mg/ml sol. c, inoculum 1.9 × 10^5
smiles,measurement,setting,value
"O=c1cccccc1O [Tropolone, tropolone]","Change of air-sac, left: + (chickens)",[1]; [7],0
same,"Change of air-sac, left: ++ (chickens)",[1]; [7],0
same,"Change of air-sac, left: +++ (chickens)",[1]; [7],0
same,"Change of air-sac, left: - (chickens)",[1]; [7],8
same,"Change of air-sac, right: + (chickens)",[1]; [7],0
same,"Change of air-sac, right: ++ (chickens)",[1]; [7],0
same,"Change of air-sac, right: +++ (chickens)",[1]; [7],0
same,"Change of air-sac, right: - (chickens)",[1]; [7],8
same,"Isolation, L (left air-sac)",[1]; [7],1
same,"Isolation, R (right air-sac)",[1]; [7],0
same,"Isolation, T (trachea)",[1]; [7],1
same,Mycoplasma Isolated Chickens,[1]; [7],2
same,Index of Isolation,"[1]; 100 mg/kg × once oral, 10 mg/ml sol. b, inoculum 10^2, range 0-6.0",0.40
same,Index of Disease,"[1]; 100 mg/kg × once oral, 10 mg/ml sol. b, inoculum 10^2, range 0-9.0",0
same,"Change of air-sac, left: + (chickens)",[1]; [8],0
same,"Change of air-sac, left: ++ (chickens)",[1]; [8],0
same,"Change of air-sac, left: +++ (chickens)",[1]; [8],0
same,"Change of air-sac, left: - (chickens)",[1]; [8],5
same,"Change of air-sac, right: + (chickens)",[1]; [8],0
same,"Change of air-sac, right: ++ (chickens)",[1]; [8],0
same,"Change of air-sac, right: +++ (chickens)",[1]; [8],0
same,"Change of air-sac, right: - (chickens)",[1]; [8],5
same,"Isolation, L (left air-sac)",[1]; [8],2
same,"Isolation, R (right air-sac)",[1]; [8],2
same,"Isolation, T (trachea)",[1]; [8],3
same,Mycoplasma Isolated Chickens,[1]; [8],3
same,Index of Isolation,"[1]; 200 mg/kg × once oral, 20 mg/ml sol. a, inoculum 1.9 × 10^5, range 0-6.0",2.8
same,Index of Disease,"[1]; 200 mg/kg × once oral, 20 mg/ml sol. a, inoculum 1.9 × 10^5, range 0-9.0",0
same,"Change of air-sac, left: + (chickens)",[1]; [9],0
same,"Change of air-sac, left: ++ (chickens)",[1]; [9],0
same,"Change of air-sac, left: +++ (chickens)",[1]; [9],0
same,"Change of air-sac, left: - (chickens)",[1]; [9],5
same,"Change of air-sac, right: + (chickens)",[1]; [9],0
same,"Change of air-sac, right: ++ (chickens)",[1]; [9],0
same,"Change of air-sac, right: +++ (chickens)",[1]; [9],0
same,"Change of air-sac, right: - (chickens)",[1]; [9],5
same,"Isolation, L (left air-sac)",[1]; [9],4
same,"Isolation, R (right air-sac)",[1]; [9],4
same,"Isolation, T (trachea)",[1]; [9],5
same,Mycoplasma Isolated Chickens,[1]; [9],5
same,Index of Isolation,"[1]; 200 mg/kg × once oral, 20 mg/ml sol. c, inoculum 1.9 × 10^5, range 0-6.0",5.2
same,Index of Disease,"[1]; 200 mg/kg × once oral, 20 mg/ml sol. c, inoculum 1.9 × 10^5, range 0-9.0",0
same,MIC,[2],0.39 µg/mL
same,MIC,[3],0.2 µg/mL
same,"Change of air-sac, left: + (chickens)",[4]; inoculum 0.3 × 10^5,0
same,"Change of air-sac, left: ++ (chickens)",[4]; inoculum 0.3 × 10^5,0
same,"Change of air-sac, left: +++ (chickens)",[4]; inoculum 0.3 × 10^5,0
same,"Change of air-sac, left: - (chickens)",[4]; inoculum 0.3 × 10^5,6
same,"Change of air-sac, right: + (chickens)",[4]; inoculum 0.3 × 10^5,0
same,"Change of air-sac, right: ++ (chickens)",[4]; inoculum 0.3 × 10^5,0
same,"Change of air-sac, right: +++ (chickens)",[4]; inoculum 0.3 × 10^5,0
same,"Change of air-sac, right: - (chickens)",[4]; inoculum 0.3 × 10^5,6
same,"Isolation, L (left air-sac)",[4]; inoculum 0.3 × 10^5,3
same,"Isolation, R (right air-sac)",[4]; inoculum 0.3 × 10^5,4
same,"Isolation, T (trachea)",[4]; inoculum 0.3 × 10^5,3
same,Mycoplasma Isolated Chickens,[4]; inoculum 0.3 × 10^5,6
same,Index of Isolation,"[4]; inoculum 0.3 × 10^5, range 0-6.0",3.2
same,Index of Disease,"[4]; inoculum 0.3 × 10^5, range 0-9.0",0
same,MIC,[5],0.78 µg/mL
same,MIC,[6],0.39 µg/mL
